Reference: patent US6479033B1, “Antitumor cystostatic and contrast agent” (priority 1994, dated 2002)

Tested on: Tumor
Assay: Tumor growth and contrasting agent in the liver after treatment (carboplatin, Spherex, gelatin foam)
Assay type: in vivo
Details: carboplatin encapsulated in SUV-PEG
Source text: The following Table summarizes results obtained using carboplatin as the cytostatic drug encapsulated in SUV-PEG and Spherex gelatin foam as the starch particle.

## N.N.O=C([O-])C1(C(=O)[O-])CCC1.[Pt+2] [Carboplatin, carboplatin]
  Tumor growth by a factor of (7 days after treatment): 1.45 ± 0.96
